Test results as given in US5232924A, “Heterocyclic compound having serotonine 2-receptor antagonistic activity” (Daiichi Pharmaceutical Co., Ltd., priority 1989, dated 1993).

Assays:
Serotonin 2-Receptor = target: T1, Serotonin 2-Receptor (Rattus norvegicus, UniProt P14842); test: Binding activity to serotonin 2-receptor, 3H-Ketanserin, rat frontal cortex membrane preparation; settings: calculated from the 50% inhibitory concentration, hydrochloride, read-out: dissociation constant for serotonin 2-receptor
T1 construct: from tissue; host or cells: intact anesthetized SD-SLC male rat (vascular response)
Experimental: A male SD rat was decapitated under anesthesia, and the frontal cortex was removed to obtain a membrane preparation. ^3 H-Ketanserin and Methysergide were used as a labelled ligand and a non-specific binding reagent, respectively. These reagents and a test compound thereof were dissolved in a 5% methanol tris-buffer solution. After incubation, this solution was filtered by suction through a GF/B glass filter. Radioactivity of ^3 H-Ketanserin collected on the filter was measured with a liquid scintillation counter. A Scatchard plot was prepared from the resulting radioactivity values, and a dissociation constant of serotonin 2-receptor and a receptor density of the membrane preparation were obtained. Further, from the receptor-binding inhibition curve of the compound is obtained a 50% inhibitory concentration, and a dissociation constant indicative of the binding affinity to serotonin 2-receptor was calculated.

Mongrel dogs [1] = test: Acute cardiac infarction model: LDA ligature and reperfusion in dogs; format: in vivo; settings: dog, hydrochloride 1 mg/kg/hr intravenous drip, versus control group
Experimental: Mongrel dogs (body weight: 8 to 20 kg) under anesthesia were ventilated artificially and underwent a left thracotomy. […] A polyethylene cannula was inserted into the femoral artery, and the blood pressure and heart rate were recorded A cannula was inserted into the […] of a drug and also into the carotid artery from which a blood sample was to be taken. After stabilization period of the test preparation, LDA was ligated with a clamp. After 2 hours from the ligature, the clamp was released for reperfusion. After observation for the following 4 hours, the heart was excised. […] Then, the heart was washed and sliced at 1 cm intervals from the apex in the direction vertical to the longer axis. Each slice at the left ventricle was divided into a part which was in risk of cardiac infarction indicated by Evans' Blue stain (hereinafter referred to as risk area) and a normal area, and each area was weighed. The weight of the left ventricle (the sum of the risk area and the normal area) and that of the risk area of each slice were individually added up to obtain the weight of the whole left ventricle and the total weight of the risk area. Further, of each slice, the area of the risk area which was not stained with Evans' Blue and that of a cardiac infarction area within the risk area which remained white, i.e., which was stained neither in blue with Evans' Blue nor in red with triphenyltetrazolium chloride, were measured to obtain a ratio of cardiac infarction part to the whole left ventricle (infarction size). […] The experiment was conducted for the following groups.

Mongrel dogs [2] = test: Angina pectoris model: partial LDA occlusion with cyclic coronary flow reduction in dogs; format: in vivo; settings: dog, maleate 0.1 mg/kg i.v., compared with before administration
Experimental: Mongrel dogs (body weight: 8 to 20 kg) under anesthesia with pentobarbital (30 mg/kg, i.v.) were ventilated artificially and underwent a left thoracotomy. LDA was separated from connected tissues. A silicone tube for partial occlusion was placed around the LDA, and a probe for blood flow rate measurement was fixed in the neighborhood. The blood flow rate was measured with a pulse Doppler blood flow meter. A cannula was inserted into a branch distal to the occlusion site of the left coronary artery, and the coronary blood pressure was measured. A polyethylene cannula was inserted into the femoral artery, and the systemic blood pressure and heart rate were recorded. A cannula was inserted to the femoral vein for administration of a drug.
The effect of the drug was expressed in terms of frequency of the periodic reduction of blood flow rate.

T1 sequence (P14842 whole entry): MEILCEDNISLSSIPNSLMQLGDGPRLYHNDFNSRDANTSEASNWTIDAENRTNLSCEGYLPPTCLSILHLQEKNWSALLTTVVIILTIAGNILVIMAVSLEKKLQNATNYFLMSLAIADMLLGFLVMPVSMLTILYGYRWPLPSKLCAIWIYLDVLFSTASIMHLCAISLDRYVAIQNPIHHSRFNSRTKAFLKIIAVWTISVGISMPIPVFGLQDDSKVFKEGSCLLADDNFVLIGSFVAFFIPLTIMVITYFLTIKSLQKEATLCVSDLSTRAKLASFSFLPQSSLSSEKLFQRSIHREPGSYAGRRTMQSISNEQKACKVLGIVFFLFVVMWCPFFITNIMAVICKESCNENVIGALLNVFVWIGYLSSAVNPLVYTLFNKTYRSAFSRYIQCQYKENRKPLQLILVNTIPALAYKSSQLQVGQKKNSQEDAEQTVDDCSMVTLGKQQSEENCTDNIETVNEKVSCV

O=C(c1ccc(F)cc1)C1CCN(CCn2c(=O)nc3n(c2=O)CCCC3)CC1 [Example 1, 3-[2-[4-(4-Fluorobenzoyl)piperidin-1-yl]ethyl]-6,7,8,9-tetrahydro-2H-pyrido[1,2-a]-1,3,5-triazine-2,4(3H)-dione]
Ki (Serotonin 2-Receptor): 15 nM | effect on myocardial infarction size (in words) (Mongrel dogs [1]): significantly reduced | effect on frequency of the cyclic coronary flow reduction (in words) (Mongrel dogs [2]): significantly reduces
